This passage reports TGI results from PubChem BioAssay (NCI).

The structures appear in SMILES notation.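 Values below derive from 48-hour exposures of cells grown in 96-well plates, with endpoints linearly interpolated between the two concentrations bracketing the appropriate inhibition level. The concentration for full growth arrest is given as TGI.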

Test systems include CCRF-CEM leukemia; IGROV1 ovarian; K-562 leukemia; MALME-3M melanoma; MCF7 breast; PC-3 prostate; SNB-75 CNS; TK-10 renal; BT-549 breast; SR leukemia.
Assay in all cases: growth of human tumour cells (NCI), 48 h

Take `CC(C)(CCCCC(C)(C)C1NC(=O)N1)C1NC(=O)N1`: the TGI with CCRF-CEM leukemia, in the assay with IGROV1 ovarian, with K-562 leukemia, with MALME-3M melanoma, in the assay on MCF7 breast and with PC-3 prostate was above 10 µM each time. In addition, the TGI in the assay on SNB-75 CNS and in the assay on TK-10 renal was above 10 µM each time.

Regarding `Cc1nn2c(C(=O)N/N=C/c3ccc([N+](=O)[O-])cc3)c(C)nc2s1`, the TGI in the assay with BT-549 breast, in the assay on CCRF-CEM leukemia, in the assay with IGROV1 ovarian, in the assay with K-562 leukemia, with MALME-3M melanoma and in the assay with MCF7 breast was above 100 µM in each case. Besides, the TGI in the assay with SNB-75 CNS and with TK-10 renal was above 100 µM in each case.

`CC(=O)C(CN(C)C)C(c1ccccc1)c1c(O)c2ccccc2oc1=O` (stereo not given): the TGI with CCRF-CEM leukemia was above 100 µM; in the assay on IGROV1 ovarian, above 100 µM; with K-562 leukemia, above 100 µM; in the assay on MALME-3M melanoma, above 100 µM; with SNB-75 CNS, 88.5 µM; in the assay on SR leukemia, above 100 µM. In the assay with TK-10 renal, the TGI was above 100 µM.

For the molecule `NCCSCc1ccccc1Cl`, the TGI is above 100 µM in the assay with BT-549 breast; 78.8 µM in the assay with CCRF-CEM leukemia; above 100 µM with IGROV1 ovarian; 76.6 µM with K-562 leukemia; above 100 µM in the assay with MALME-3M melanoma; 93.8 µM in the assay on PC-3 prostate. Also, the TGI was above 100 µM in the assay on SNB-75 CNS, 55.7 µM in the assay on SR leukemia and 74 µM in the assay with TK-10 renal.

For `Oc1ccccc1C1=NOC(c2ccc(C(F)(F)F)cc2)C1` (stereo not given), the TGI was above 50 µM in the assay on BT-549 breast; above 50 µM with CCRF-CEM leukemia; above 33.3 µM in the assay on IGROV1 ovarian; above 50 µM with K-562 leukemia; above 50 µM with MALME-3M melanoma; above 50 µM with MCF7 breast. Moreover, the TGI was above 50 µM in the assay with PC-3 prostate, above 50 µM in the assay with SNB-75 CNS and above 16.2 µM with TK-10 renal.

As for `Cc1c(N/C=C(\C#N)C(=O)c2ccc(Cl)cc2)c(=O)n(-c2ccccc2)n1C`, the TGI with BT-549 breast, with CCRF-CEM leukemia, in the assay on IGROV1 ovarian, in the assay on K-562 leukemia, in the assay with MALME-3M melanoma and in the assay on MCF7 breast was above 100 µM throughout. Besides, the TGI in the assay with PC-3 prostate, in the assay on SNB-75 CNS and in the assay on TK-10 renal was above 100 µM throughout.

Regarding `COc1ccc(/C=C/C(=O)CC(=O)/C=C/c2ccc(OC)cc2)cc1`, the TGI with CCRF-CEM leukemia is 54.9 µM; with IGROV1 ovarian it was above 100 µM; in the assay on K-562 leukemia it was above 100 µM; with MALME-3M melanoma it was above 100 µM; in the assay on MCF7 breast, above 100 µM; in the assay with PC-3 prostate it was above 100 µM. In the assay on SNB-75 CNS, this molecule returned a TGI above 100 µM.

As to `CO[C@@H]1C[C@H]2N3CC[C@@]2(c2cc4c(cc2C3)OCO4)[C@H]2O[C@@H]12`, the TGI in the assay with BT-549 breast, in the assay on CCRF-CEM leukemia, in the assay with IGROV1 ovarian, in the assay with K-562 leukemia, with MALME-3M melanoma and in the assay with MCF7 breast was above 100 µM in each case. Further, the TGI in the assay with PC-3 prostate, in the assay with SNB-75 CNS and in the assay with TK-10 renal was above 100 µM throughout.

Turning to `O=S(=O)(c1ccccc1)n1cc(C[P+](c2ccccc2)(c2ccccc2)c2ccccc2)c2ccccc21`, the TGI worked out at 12.8 µM with CCRF-CEM leukemia; 16 µM in the assay on IGROV1 ovarian; 14.2 µM with K-562 leukemia; 14.7 µM with MALME-3M melanoma; 12.6 µM in the assay with SNB-75 CNS; 31.6 µM with SR leukemia. The molecule also yielded a TGI in the assay on TK-10 renal of 16.9 µM.

As for `COc1ccc(/C=C2\Sc3nnc(CNc4ccc(Cl)cc4)n3N=C2c2cc(F)c(Cl)cc2Cl)cc1OC`, the TGI in the assay on CCRF-CEM leukemia, in the assay on IGROV1 ovarian, with K-562 leukemia, in the assay with MCF7 breast, with PC-3 prostate and with SR leukemia was above 100 µM throughout. In the assay on TK-10 renal, the TGI is above 100 µM.

Consider `NCCCCC(=O)c1cccnc1`, for which the TGI in the assay on CCRF-CEM leukemia, with IGROV1 ovarian, with K-562 leukemia, in the assay on MALME-3M melanoma, in the assay on SR leukemia and in the assay with TK-10 renal was above 100 µM each time.

Turning to `CN(C)S(=O)(=O)n1cnc(CO)c1`, the TGI with BT-549 breast, with IGROV1 ovarian, in the assay on K-562 leukemia, with MALME-3M melanoma, in the assay on MCF7 breast and in the assay on PC-3 prostate was above 100 µM throughout. Further, the TGI with SNB-75 CNS and in the assay on TK-10 renal was above 100 µM each time.

With `c1cncc(O[Si](Oc2cccnc2)(Oc2cccnc2)Oc2cccnc2)c1`, the TGI with IGROV1 ovarian, in the assay on MALME-3M melanoma, with SNB-75 CNS, in the assay with SR leukemia and with TK-10 renal was above 100 µM each time.

For the molecule `NC(Cc1ccc(S(=O)(=O)O)cc1)C(=O)NC(Cc1ccc(S(=O)(=O)O)cc1)C(=O)NC(Cc1ccc(S(=O)(=O)O)cc1)C(=O)O` (stereo not given), the TGI with BT-549 breast, with CCRF-CEM leukemia, in the assay on IGROV1 ovarian, in the assay with K-562 leukemia, in the assay on MALME-3M melanoma and in the assay on MCF7 breast was above 100 µM throughout. Also, the TGI in the assay on PC-3 prostate, in the assay with SNB-75 CNS and in the assay on TK-10 renal was above 100 µM throughout.

Consider `COc1ccc(/C=C2/NC(=S)N=C2Cl)cc1`, for which the TGI with CCRF-CEM leukemia, in the assay with IGROV1 ovarian, in the assay with K-562 leukemia, in the assay with MALME-3M melanoma, in the assay on MCF7 breast and in the assay on PC-3 prostate was above 100 µM in each case. Moreover, the TGI in the assay on SNB-75 CNS, with SR leukemia and in the assay with TK-10 renal was above 100 µM in each case.

Consider `O=C1NC(N2CCCCC2)=N/C1=C\c1ccccc1O`, for which the TGI with CCRF-CEM leukemia, in the assay on IGROV1 ovarian, in the assay on K-562 leukemia, in the assay with MALME-3M melanoma, in the assay with MCF7 breast and in the assay on PC-3 prostate was above 100 µM in each case. The TGI in the assay with SNB-75 CNS and in the assay on TK-10 renal was above 100 µM each time.
